One molecule from patent US20060172996A1, “Method of preventing relapse in the abstinent substance dependent individual” (priority 2005, published 2006) can be followed below.

In this test the test system is otherwise abstinent person. The test can be described thus: Human use of Flumazenil during a period of urges for a substance of abuse. The format is in vivo. The conditions noted are these: placed into the blood stream as quickly as possible during a period of urges. The text has this:
While an IV might accomplish the above noted task, it is not realistic for a person, after having undergone detoxification, to have repeated IV therapies daily, to prevent a relapse so as not become substance abuse dependent again. Such a person would have to go to a treatment location where an IV can be administered.

For the molecule `CCOC(=O)c1ncn2c1CN(C)C(=O)c1cc(F)ccc1-2` [Flumazenil], the “Urge for a substance of abuse such as alcohol” value was “the urge will disappear”.
